This note sets out measurements from US6046231A, “Use of 4'-bromoflavone in a cancer chemopreventative composition and method” (The Board of Trustees of the University of Illinois, priority 1999, dated 2000).

Data set [1] deals with cytochrome P4501A1. The data set can be described thus: Inhibition of TCDD-induced EROD activity. The format is biochemical.
Data set [2] deals with quinone reductase (QR). The data set can be described thus: Induction of quinone reductase (QR) in mouse liver and mammary glands (Table 3). The format is in vivo.
The test system of data set [3] is quinone reductase (QR). The data set can be described thus: Effect on DMBA-induced QR activity in rat tissues. The class given is in vivo, Sprague Dawley rat. Particulars: liver and mammary gland. The procedure:
Effect of 4'-Bromoflavone on DMBA-induced QR Activity and Cytochrome P4501A1 Activity in Rat Tissues. At 43 days of age, Sprague Dawley rats were placed on various experimental diets (Table 1) for 1 week prior to administration of a single (i.g.) dose of DMBA (15 mg). Animals then were weighed and sacrificed by CO2 asphyxiation. Tissues (livers and mammary glands) were collected, rinsed with saline, frozen in liquid nitrogen, and stored at -80° C. until analysis. Individual tissues were homogenized in 0.05 M Tris-HCl buffer (pH 7.5) containing 0.25 M sucrose. Cytosolic and microsomal fractions were obtained through differential centrifugation. Dicumarol-sensitive QR activity was measured as described above using 50 μl of suitably diluted cytosol supernatants (in duplicate). Cytochrome P4501A1-mediated EROD activities were determined as described previously in R. Poul et al. Anal. Biochem., 107, pp. 265-275 (1980) and S. Sharma et al., Cancer Res., 54, pp. […] (1994), with slight modifications using suitably diluted microsomal protein. Enzyme activities were expressed as nmol/mg protein/min. Protein content was determined using Bradford reagent with BSA as standard, and data were presented as mean ±SE and analyzed using Student's t test (n=5).
Test animals were placed on various experimental diets for one week (Table 1) prior to a single i.g. dose of DMBA (15 mg). […]

Data set [4] deals with QR XRE-CAT construct, HepG2 cells. The data set can be described thus: CAT expression in HepG2 cells transfected with QR XRE-CAT. As to conditions: 10 μM, 48 h; listed as 4'-BF. The format is cell-based, human cells; rat QR gene. As to the method:
Transcient Transfection Gene Expression Assay. Cultured HepG2 human hepatoma cells were transfected with three plasmid constructs (PDTD-1697CAT, XRE-CAT, ARE-CAT) containing various portions of the 5'-region of the QR gene fused to the CAT gene using the calcium phosphate precipitation method (J. Sambrook et al., Molecular cloning: A Laboratory Handbook, Ed. Chris Nolan, CHS Laboratory Press, 1989). After 4 hours of transfection, the cells were treated with 10% glycerol for 3 minutes and rinsed with PBS and switched to MEM, containing 100 units/ml penicillin G sodium, 100 units/ml streptomycin sulfate, nonessential amino acids, and 1 mM sodium pyruvate (Life Technologies Inc.) supplemented with 10% fetal bovine serum for 12-16 hours recovery. Then, test agents were added to the cells. After 48 hours of treatment with the test agents, cells were harvested with lysis buffer (Boehringer Mannheim Biochemical) and CAT protein expressions were assessed using a CAT ELISA kit (Boehringer Mannheim Biochemical). CAT enzyme expression was normalized for the protein content of each sample. All data were expressed as mean +/- SD. Means were compared using Student's t test with n=4.
This was further investigated in transient transfection experiments wherein human hepatoma cells were transfected with DNA constructs containing various portions of the 5' upstream promoter region of the QR gene linked to the CAT reporter gene by using the calcium phosphate precipitation method. Construct pDTD-1097CAT contains elements of the rat QR gene connected to the CAT construct gene. […]
In particular, FIG. 1 illustrates quantitation of CAT expression in HepG2 cells transfected with QR-CAT constructs. […] CAT expression (ng CAT/mg protein) was determined using a CAT ELISA, and the ratio of CAT expression between treated and control cells was calculated (ratio=treated/control).

The test system of data set [5] is quinone reductase (QR), Hepa 1c1c7 cells. The data set can be described thus: Quinone reductase (QR) induction in Hepa 1c1c7 cells. The format is cell-based, murine.

Molecules are shown by their SMILES. Entries after “also recorded” stand apart in the source; their conditions may differ.

As to `O=c1cc(-c2ccc(Br)cc2)oc2ccccc12` [4'-Bromoflavone], in data set [1], the “inhibition of TCDD-induced EROD activity” value was “significantly inhibit”. For the same compound, in data set [2] (liver), the “QR (Treated/Control), Liver” value is given as 5.27. In data set [2] (mammary gland), the “QR (Treated/Control), Mammary Gland” value is recorded as 2.66. For the same compound, the “QR activity vs control (basal diet)” value in data set [3] (1 week diet, DMBA 15 mg i.g.) is listed as “significantly induced”. Further, the “QR activity vs DMBA alone” value in data set [3] (DMBA and 4'-BF or 4'-BF alone) was “significant dose-dependent induction”. The “CAT expression, QR XRE-CAT” value in data set [4] is reported as “Significant induction; also recorded: significantly (P<0.0001, students t test with n=4) induced”. Besides, in data set [5] (Hepa 1c1c7 cells), the Cq turned out to be 0.15 µM. Moreover, the “CI, chemoprevention index (IC50/CD)” value in data set [5] (IC50/CD, 2880 min) is recorded as more than 17000. Besides, in data set [5] (Mus musculus, Hepa-1c1c7, 48 h, Hepa 1c1c7 cells, 48 h, read-out: CD, concentration to double the specific activity of QR), the EC (2-fold) came out at 0.01 µM. Further, the “times more active than sulforaphane” value in data set [5] (compared to sulforaphane) is reported as “about 40 times”.
